Measurements reported in PMC8048783, “CYP154C5 Regioselectivity in Steroid Hydroxylation Explored by Substrate Modifications and Protein Engineering” (Chembiochem, 2020).

Columns and labels:
CYP154C5 [1] = molecular target: T1, CYP154C5 (Nocardia farcinica, UniProt Q5YNS8); assay: biochemical; format: binding
T1 construct: gene NFA_53110; full-length, N-terminal His-tag (pET28a(+), NdeI/HindIII), purified from E. coli C43(DE3)

CYP154C5 [2] = molecular target: T2, CYP154C5 (Nocardia farcinica, UniProt Q5YNS8, F92A); assay: type I spectral shift titration, tight-binding fit
T2 construct: gene NFA_53110; full-length, N-terminal His-tag (pET28a(+), NdeI/HindIII), purified from E. coli C43(DE3)
T2 sequence (Q5YNS8 whole entry F92A): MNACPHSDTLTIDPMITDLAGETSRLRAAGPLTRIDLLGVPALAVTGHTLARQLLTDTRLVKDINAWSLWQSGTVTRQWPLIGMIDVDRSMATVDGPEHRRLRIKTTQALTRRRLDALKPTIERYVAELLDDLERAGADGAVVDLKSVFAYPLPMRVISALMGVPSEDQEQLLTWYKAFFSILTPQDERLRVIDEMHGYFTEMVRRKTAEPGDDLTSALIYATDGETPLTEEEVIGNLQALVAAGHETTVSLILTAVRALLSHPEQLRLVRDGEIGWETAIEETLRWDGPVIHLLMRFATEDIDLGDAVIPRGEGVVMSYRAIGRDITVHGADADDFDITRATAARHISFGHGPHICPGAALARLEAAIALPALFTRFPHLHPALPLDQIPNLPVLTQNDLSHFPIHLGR
Excerpt: (§1) type I spectral shift titration, tight-binding fit on CYP154C5

CYP154C5 [3] = molecular target: T3, CYP154C5 (Nocardia farcinica, UniProt Q5YNS8, Q398A); assay: type I spectral shift titration, tight-binding fit
T3 construct: gene NFA_53110; full-length, N-terminal His-tag (pET28a(+), NdeI/HindIII), purified from E. coli C43(DE3)
T3 sequence (Q5YNS8 whole entry Q398A): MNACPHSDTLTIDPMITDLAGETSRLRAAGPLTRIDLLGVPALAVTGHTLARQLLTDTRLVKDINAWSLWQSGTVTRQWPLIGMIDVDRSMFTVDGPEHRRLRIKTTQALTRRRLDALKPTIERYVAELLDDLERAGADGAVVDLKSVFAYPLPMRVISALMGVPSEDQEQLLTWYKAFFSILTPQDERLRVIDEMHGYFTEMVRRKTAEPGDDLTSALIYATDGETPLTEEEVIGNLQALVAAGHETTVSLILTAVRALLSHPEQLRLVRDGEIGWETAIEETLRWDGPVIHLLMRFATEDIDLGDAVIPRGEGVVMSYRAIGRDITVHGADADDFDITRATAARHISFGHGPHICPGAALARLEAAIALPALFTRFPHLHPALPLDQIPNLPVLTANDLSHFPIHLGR
Excerpt: as §1

CYP154C5 [4] = molecular target: T4, CYP154C5 (Nocardia farcinica, UniProt Q5YNS8, Q239A); assay: type I spectral shift titration, tight-binding fit
T4 construct: gene NFA_53110; full-length, N-terminal His-tag (pET28a(+), NdeI/HindIII), purified from E. coli C43(DE3)
T4 sequence (Q5YNS8 whole entry Q239A): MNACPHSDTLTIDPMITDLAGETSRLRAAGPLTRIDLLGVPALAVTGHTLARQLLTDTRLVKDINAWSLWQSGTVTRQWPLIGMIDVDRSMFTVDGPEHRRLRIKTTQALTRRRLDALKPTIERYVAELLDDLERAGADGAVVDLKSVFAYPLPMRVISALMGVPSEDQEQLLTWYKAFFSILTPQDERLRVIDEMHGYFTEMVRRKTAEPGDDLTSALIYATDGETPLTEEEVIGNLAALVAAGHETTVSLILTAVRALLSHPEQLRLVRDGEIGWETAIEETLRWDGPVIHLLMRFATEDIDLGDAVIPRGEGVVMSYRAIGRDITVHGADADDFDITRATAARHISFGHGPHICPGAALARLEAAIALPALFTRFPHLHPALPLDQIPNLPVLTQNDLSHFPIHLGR
Excerpt: as §1

CYP154C5 [5] = molecular target: T5, CYP154C5 (Nocardia farcinica, UniProt Q5YNS8, M84A); assay: type I spectral shift titration, tight-binding fit
T5 construct: gene NFA_53110; full-length, N-terminal His-tag (pET28a(+), NdeI/HindIII), purified from E. coli C43(DE3)
T5 sequence (Q5YNS8 whole entry M84A): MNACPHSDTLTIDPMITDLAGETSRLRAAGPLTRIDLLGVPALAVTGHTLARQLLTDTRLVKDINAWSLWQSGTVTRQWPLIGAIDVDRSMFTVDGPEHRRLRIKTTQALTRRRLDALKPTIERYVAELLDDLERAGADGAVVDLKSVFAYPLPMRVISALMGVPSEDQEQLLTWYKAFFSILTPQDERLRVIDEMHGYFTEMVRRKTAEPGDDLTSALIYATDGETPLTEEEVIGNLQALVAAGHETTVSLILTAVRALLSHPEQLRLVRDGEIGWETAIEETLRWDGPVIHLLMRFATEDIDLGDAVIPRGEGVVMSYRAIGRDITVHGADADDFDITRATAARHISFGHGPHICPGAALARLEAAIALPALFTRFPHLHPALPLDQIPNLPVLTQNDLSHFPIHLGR
Excerpt: as §1

T1 sequence (Q5YNS8 entry or part of it): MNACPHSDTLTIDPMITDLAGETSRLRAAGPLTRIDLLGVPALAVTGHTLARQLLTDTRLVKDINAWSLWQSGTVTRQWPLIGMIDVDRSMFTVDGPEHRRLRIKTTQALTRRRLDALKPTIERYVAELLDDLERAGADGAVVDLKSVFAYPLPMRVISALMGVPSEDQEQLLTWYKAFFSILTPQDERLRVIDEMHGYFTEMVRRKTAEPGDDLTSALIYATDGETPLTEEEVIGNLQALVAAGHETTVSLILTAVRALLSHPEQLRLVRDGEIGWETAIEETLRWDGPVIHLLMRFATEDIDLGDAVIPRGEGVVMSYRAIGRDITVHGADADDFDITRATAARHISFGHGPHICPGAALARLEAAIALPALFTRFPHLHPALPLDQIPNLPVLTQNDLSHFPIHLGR

Structure (SMILES) | Kd (CYP154C5 [1]) | Kd (CYP154C5 [2]) | Kd (CYP154C5 [3]) | Kd (CYP154C5 [4]) | Kd (CYP154C5 [5])
CC(=O)[C@H]1CC[C@H]2[C@@H]3CCC4=CC(=O)CC[C@]4(C)[C@H]3CC[C@]12C [compound 3, progesterone] | 15 ± 10 nM | 209 ± 12 nM | 34 ± 21 nM |  | 
CC(=O)[C@H]1CC[C@H]2[C@@H]3CC=C4C[C@@H](O)CC[C@]4(C)[C@H]3CC[C@]12C [compound 1, pregnenolone] | 62 ± 14 nM |  |  |  | 
C[C@]12CC[C@H](O)CC1=CC[C@@H]1[C@@H]2CC[C@]2(C)C(=O)CC[C@@H]12 [compound 2, dehydroepiandrosterone] | < 1 nM | 1020 ± 32 nM | 687 ± 43 nM |  | 
C[C@]12CC[C@H]3[C@@H](CCC4=CC(=O)CC[C@@H]43)[C@@H]1CC[C@@H]2O [compound 6, nandrolone] | 100 ± 17 nM |  |  | 13 ± 6 nM | 
C[C@@]12CCC[C@H]1[C@@H]1CC[C@H]3CC(=O)CC[C@]3(C)[C@H]1CC2 [compound 11, 5α‐androstan‐3‐one] | 20 ± 16 nM |  |  |  | 
C[C@]12CCCCC1=CC[C@@H]1[C@@H]2CC[C@]2(C)C(=O)CC[C@@H]12 [compound 10, 3‐deoxydehydroepiandrosterone] | 94 ± 52 nM |  |  |  | 
C[C@]12CC[C@H]3[C@@H](CCC4=CC(=O)CC[C@@]43C)[C@@H]1CC[C@@H]2O [compound 5, testosterone] | 18 ± 10 nM | 1480 ± 33 nM | 747 ± 45 nM |  | 5710 ± 161 nM
C[C@]12CCC(=O)C=C1CC[C@@H]1[C@@H]2CC[C@]2(C)C(=O)CC[C@@H]12 [compound 4, androstenedione] | 12 ± 7 nM | 512 ± 17 nM |  |  | 3130 ± 234 nM
